# Assay results: patent US4241184A, “Secondary alcohol dehydrogenase enzyme and use thereof” (priority 1979, dated 1980)
# “Also recorded” adds a separate entry of the source. Read-outs that look alike come from different tables or passages of the source.
# Experiments:
# [1] = system: secondary alcohol dehydrogenase (SADH); assay: Purified secondary alcohol dehydrogenase activity (formation of reduced NAD); format: biochemical, Pseudomonas sp. ATCC 21439
# Experimental: Secondary alcohol dehydrogenase (SADH) from an obligate methanol utilizer, Pseudomonas sp. ATCC 21439 was purified as follows. […] 0.05 M sodium phosphate buffer, pH 7.0 with 0.5 mM dithiothretol (buffer A) and were disrupted sonically (5×1 min.). The crude extract was separated by centrifugation. The crude extract was heat-treated at 50° C. in a water bath for 10 minutes. The resulting precipitate was removed by centrifugation. To the supernatant solution, 25 ml of protamine sulfate solution (2% solution in 0.1 M Tris base) was added dropwise with continuous stirring. After standing for 30 minutes, the extract was centrifuged. The supernatant solution was fractionated with solid ammonium sulfate. The material precipitating between 30 and 60% saturation was collected and was dialized overnight against buffer A. The The dialized material was applied to a DEAE-cellulose column (3 cm by 35 cm) that had been equilibrated with buffer A. The secondary alcohol dehydrogenase activity was eluted in the void volume. This DEAE-cellulose eluate was concentrated by ammonium sulfate fractionation. Material precipitating between 30 and 50% ammonium sulfate saturation was collected by centrifugation and dialyzed overnight against A. This fraction was further washed and filtered through an Amicon unit with XM 50 membrane. The concentrated fraction (6 ml) inside the Amicon unit was applied to an Affi-Gel Blue column (0.8 cm×18 cm) which had been equilibrated with buffer A for affinity chromatography. The column was washed overnight with buffer A (0.18 ml./min.) and then was eluted with buffer A containing 5 mM NAD. Each 1 ml. fraction was collected.
# The purified secondary alcohol dehydrogenase enzyme (SADH) may be used directly for converting C3 -C6 secondary alcohols to the corresponding methyl ketones by the procedures described above; however, a source of NAD^+ must be added to the reaction medium. One can determine the NAD-linked secondary alcohol dehydrogenase activity with a fluorescence spectrophotometer (Perkin Elmer, Model MPF 44A) by following the formation of reduced NAD (Ex 340 nm, Em 460 nm). The assay system (3 ml.) will typically contain: sodium phosphate buffer pH 7.0, 150 μmol; NAD 1.0 μmol; a given amount of enzyme preparation; and 20 μmol secondary alcohol. The reaction is started by the addition of secondary alcohol. One unit of SADH enzyme activity represents the reduction of one nmole NAD per minute.
# The effect of metal-chelating agents and thioreagents on the activity of the purified SADH enzyme were studied. […] The possibility of ethanol or n-propanol as an inhibitor was studied.
# [2] = system: cell suspensions of C1 -utilizers; assay: Optimal conditions and inhibition of 2-butanone production from 2-butanol by cell suspensions; format: cell-based
# Description: The following summarizes tests conducted on the optimal conditions for the production of methyl ketones from C3 -C6 sec. alcohols.
# [3] = system: cell-free particulate fractions derived from the methylotrophic microorganisms; assay: Conversion of C3-C6 n-alkanes to sec. alcohols by cell-free particulate fractions: inhibitors and electron donors; format: biochemical
# Description: The conditions for preparing the cell suspensions or the cell-free particulate fractions from methane-grown methylotroph microorganisms is the same as described above. […] Tables XXV and XXVI show the conversion of C3 -C6 n-alkanes to the corresponding secondary alcohols using cell suspensions and cell-free particulate fractions, respectively, of methane-grown methylotroph microorganisms.
# [4] = system: P(40) particulate fraction of Methylosinus sp. (CRL-15, NRRL B-11,202); assay: Effect of inhibitors on propylene epoxidation and methane hydroxylation by P(40) fraction; format: biochemical; details: inhibitor 10^-3 M
# Experimental: The oxidation of methane and propylene by particulate [(P)40 and(P)80] fractions and soluble [S(80)] fraction was measured at 30° C. by estimating the production of methanol and propylene oxide, respectively. The reaction mixtures contained in 1.0 ml: 150 mM potassium phosphate buffer, pH 7.0 containing 5 mM MgCl2, 0.6 ml; 10 μmoles NADH, and cellular fraction.
# Reaction mixtures were contained in 10 ml vials at 4° C. Vials were sealed with rubber caps. The gaseous phase in the vials was removed using vacuum and then was replaced with a gas mixture of methane or propylene and oxygen at a 1:1, v/v ratio. Oxidation of other gaseous n-alkanes and n-alkenes was examined as described above. For liquid substrates, 10 μl of substrate was used directly. Vials were then incubated at 30° C. on a rotary shaker at 200 RPM.
# It has been reported that the oxidation of methane by cell suspensions of methane-utilizing bacteria was inhibited by various metal-binding or metal-chelating agents (Patel et al., J. Bacteriol. 126: 1017-1019 (1976)). […] (CRL-15, NRRL B-11,202) was examined.
# [5] = system: methanol-grown Methylococcus capsulatus CRL M1 (NRRL B-11,219); assay: Effect of metal-chelating agents and other inhibitors on production of 2-butanone by cell suspensions; format: cell-based
# [6] = Oxidation of 2-butanol to 2-butanone by cell-free soluble extracts of C1-utilizing microbes; format: biochemical
# Experimental: The clear supernatant contained the SADH activity. […] The reaction was started by the addition of substrate.
# Catalytic activity was also assayed by fluorescence spectrophotometry.
# [7] = system: secondary alcohol dehydrogenase; assay: Purified yeast secondary alcohol dehydrogenase: substrates, electron acceptors, inhibitors, stoichiometry; format: biochemical, Pichia sp. NRRL Y-11,328
# Experimental: Large scale cultures of Pichia sp. NRRL Y-11,328 were grown with aeration at 30° C. in a 14-liter New Brunswick f fermentor in a mineral salt medium containing methanol (0.4%, v/v) as the sole carbon source. The cells (200 g., wet weight) were suspended in […] sodium phosphate buffer, pH 7.0, containing 1 mM dithiothreitol (buffer A), and crude extracts were prepared as described previously. To the crude extracts, 18 ml. of protamine sulfate solution [2% solution in 0.1 M tris (hydroxymethyl) aminomethane (tris) base] was added dropwise with continuous stirring. After standing for 30 min., the extracts were centrifuged at 20,000×g. for 60 min. The supernatant solution was fractionated with solid ammonium sulfate. Extracts were brought to 50% of saturation with respect to ammonium sulfate by addition of 313 g. of the salt per liter of extract. Precipitated proteins was removed by centrifugation, and 137 g. of ammonium sulfate was added per liter of the supernatant liquid to bring it to 70% of saturation. Material precipitating between 50 and 70% of saturation was collected by centrifugation and dissolved in buffer A. This preparation was dialyzed overnight against buffer A, and the dialyzed material was applied to a DEAE-cellulose column (5×40 cm) that had been equilibrated with buffer A. The sample was washed with 200 ml. of buffer A and eluted with 2 liters of buffer A that contained NaCl in a linear gradient running from a concentration of 0 to 0.5 M. Fractions of 15 ml. were collected. Fractions containing secondary alcohol dehydrogenase activity were pooled and were termed DEAE-cellulose eluate. The DEAE-cellulose eluate was concentrated by ammonium sulfate fractionation.
# Secondary alcohol dehydrogenase activity was measured spectrophotometrically at 340 nm with a NAD^+ as an electron acceptor. The reaction mixture, in a total 3.0 ml., contained 50 mM phosphate buffer, pH 8.0, 5μ moles NAD^+, crude extracts, and subtrate. The reactions were started by addition of 100 μl of 0.1 M substrate and the rate of NAD^+ reduction was measured. Protein concentration was determined by the method of Lowry et al.
# The substrate specificity of the purified secondary alcohol dehydrogenase was examined spectrophotometrically.
# [8] = system: Methylococcus capsulatus (CRL Ml, NRRL B-11,219); assay: Effect of inhibitors on epoxidation of propylene and hydroxylation of methane, cell-containing enzyme preparation; format: cell-based; details: for inhibition at 1000 µM: Methylococcus capsulatus, NRRLB11, 1 h
# [9] = system: P(40) particulate fraction of Methylosinus sp. (CRL-15, NRRL B-11,202); assay: Stoichiometry of propylene epoxidation and methane hydroxylation by P(40) fraction; format: biochemical; details: 5.0 μmoles substrate
# Experimental: The particulate P(40) fraction of Methylosinus sp. (CRL-15, NRRL B-11,202) was used to determine the stoichiometry of hydroxylation and epoxidation reactions. The stoichiometry of methane or propylene-dependant NADH oxidation, oxygen consumption and product formation was approximately 1:1:1 Table XIV. This is consistent with methane or propylene oxygenation being catalyzed by a mono-oxygenase.
# ^a Under identical condition of reaction, the estimation of NADH
# oxidized was carried out spectrophotometrically, the estimation of oxygen
# consumed was measured polarographically, and estimation of product formed
# was carried out by gas chromatography.
# [10] = system: P(40) particulate fraction of Methylosinus sp. (CRL-15, NRRL B-11,202); assay: Oxidation of n-alkenes and n-alkanes by P(40) particulate fraction; format: biochemical
# [11] = system: Methylobacterium organophilum (CRL 26, NRRL B-11,222); assay: Effect of inhibitors on epoxidation of propylene and hydroxylation of methane, cell-containing enzyme preparation; format: cell-based; details: NRRLB11, 1 h
# [12] = system: Methylosinus trichosporium OB3b (NRRL B-11,196); assay: as above; format: cell-based; details: NRRLB11, 1 h
# [13] = NRRLB11, read-out: Inhibition (%) of production of 2-butanone
# [14] = purified SADH, each inhibitor 1 mM, measured spectrofluorometrically
# [15] = read-out: % Inhibition, Epoxidation
# [16] = read-out: % Inhibition, Hydroxylation
# [17] = NRRLB11, read-out: Inhibition (%) of production of 2-butanone, 1 mM
smiles,measurement,setting,value
CCC(C)=O [2-butanone],inhibition of SADH activity by the product,[1],inhibited
same,product inhibition of 2-butanone production,[2]; 8 μmoles 2-butanone added to viable cell suspensions,no product inhibition
Oc1cccc2cccnc12 [8-Hydroxyquinoline],inhibition of the conversion of the n-alkanes to the sec. alcohols,[3],inhibited
same,"% Inhibition, Methane-Hydroxylating Activity",[4],80%
same,"% Inhibition, Propylene-Epoxidizing Activity",[4],75%
O=C(O)CN(CCN(CC(=O)O)CC(=O)O)CC(=O)O [EDTA],% inhibition of SADH activity,[1],63%
same,inhibition at 1000 µM,[5]; [13],70%
"Cc1cc2nc3c(=O)[nH]c(=O)nc-3n(C[C@H](O)[C@H](O)[C@H](O)COP(=O)(O)OP(=O)(O)OC[C@H]3O[C@@H](n4cnc5c(N)ncnc54)[C@H](O)[C@@H]3O)c2cc1C [FAD, flavin adenine dinucleotide]",cofactor for oxidation of secondary alcohols in the cell-free system,[6],not effective
same,electron acceptor for the purified enzyme,[7],could not act as electron carrier
C [Methane],inhibition of epoxidation of propylene to propylene oxide in the presence of methane,[8]; cell suspension of methane-grown strain,50%
same,NADH Oxidized,[9],4.8 µmol
same,O2 Consumed,[9],4.6 µmol
same,Product formed,[9],4.2 µmol
same,Propylene Oxide Produced,"[10]; substrate competition, gas phase as labelled",0 μmoles/hr/mg. protein
same,Rate of Product Formation,"[10]; substrate oxidized to its epoxide or alcohol, 30° C.",4.8 μ moles/hr/mg of protein
NC(=O)C1=CN([C@@H]2O[C@H](COP(=O)(O)OP(=O)(O)OC[C@H]3O[C@@H](n4cnc5c(N)ncnc54)[C@H](OP(=O)(O)O)[C@@H]3O)[C@@H](O)[C@H]2O)C=CC1 [NAD(P)H],cofactor for oxidation of secondary alcohols in the cell-free system,[6],not effective
"NC(=O)c1ccc[n+]([C@@H]2O[C@H](COP(=O)([O-])OP(=O)(O)OC[C@H]3O[C@@H](n4cnc5c(N)ncnc54)[C@H](O)[C@@H]3O)[C@@H](O)[C@H]2O)c1 [NAD, Nicotinamide adenine dinucleotide]",Km,"[1]; Line-Weaver-Burk plot, read-out: Michaelis constants (Km) of SADH",11 µM
same,Km,"[1]; pure SADH, read-out: Km values",11 µM
same,cofactor for oxidation of secondary alcohols in the cell-free system,[6],requirement; also recorded: required
same,electron acceptor for the purified enzyme,[7],required
NC(=O)c1ccc[n+]([C@@H]2O[C@H](COP(=O)(O)OP(=O)(O)OC[C@H]3O[C@@H](n4cnc5c(N)ncnc54)[C@H](OP(=O)(O)O)[C@@H]3O)[C@@H](O)[C@H]2O)c1 [NADP],cofactor for oxidation of secondary alcohols in the cell-free system,[6],not effective
same,electron acceptor for the purified enzyme,[7],could not act as electron carrier
[N-]=[N+]=[N-] [Sodium azide],% inhibition of SADH activity,[1]; [14],10%
same,inhibition at 1000 µM,[5]; [13],10%
NNC(N)=S [Thiosemicarbazide],inhibition of the conversion of the n-alkanes to the sec. alcohols,[3],inhibited
same,"% Inhibition, Methane-Hydroxylating Activity",[4],100%
same,"% Inhibition, Propylene-Epoxidizing Activity",[4],97%
NC(N)=S [Thiourea],inhibition at 1000 µM,[8]; [15],100%
same,inhibition at 1000 µM,[8]; [16],100%
same,inhibition of production of 2-butanone from 2-butanol by cell suspensions of the strains tested,[2],not inhibited
same,inhibition of the conversion of the n-alkanes to the sec. alcohols,[3],inhibited
same,inhibition at 1000 µM,[11]; [15],100%
same,inhibition at 1000 µM,[11]; [16],100%
same,inhibition at 1000 µM,[5]; [17],0%
same,inhibition at 1000 µM,[12]; [15],100%
same,inhibition at 1000 µM,[12]; [16],100%
same,"% Inhibition, Methane-Hydroxylating Activity",[4],98%
same,"% Inhibition, Propylene-Epoxidizing Activity",[4],98%
O=C1C(Cl)=CC(=Nc2ccc(O)cc2)C=C1Cl [dichlorophenol indophenol],cofactor for oxidation of secondary alcohols in the cell-free system,[6],not effective
same,electron acceptor for the purified enzyme,[7],could not act as electron carrier
N[C@@H](CCC(=O)N[C@@H](CS)C(=O)NCC(=O)O)C(=O)O [glutathione],cofactor for oxidation of secondary alcohols in the cell-free system,[6],not effective
same,inhibition of secondary alcohol dehydrogenase activity,[7],strongly inhibited
C[n+]1c2ccccc2nc2ccccc21 [phenazine methosulfate],cofactor for oxidation of secondary alcohols in the cell-free system,[6],not effective
same,electron acceptor for the purified enzyme,[7],could not act as electron carrier
"c1ccc(-c2ccccn2)nc1 [α,α -Bipyridyl, α,α-bipyridyl]",% inhibition of SADH activity,[1]; [14],70%
same,inhibition at 1000 µM,[8]; [15],100%
same,inhibition at 1000 µM,[8]; [16],100%
same,inhibition of production of 2-butanone from 2-butanol by cell suspensions of the strains tested,[2],inhibited
same,inhibition of the conversion of the n-alkanes to the sec. alcohols,[3],inhibited
same,inhibition at 1000 µM,[11]; [15],100%
same,inhibition at 1000 µM,[11]; [16],100%
same,inhibition at 1000 µM,[5]; [17],75%
same,inhibition at 1000 µM,[12]; [15],100%
same,inhibition at 1000 µM,[12]; [16],90%
same,"% Inhibition, Methane-Hydroxylating Activity",[4],99%
same,"% Inhibition, Propylene-Epoxidizing Activity",[4],98%
